The values below come from patent US6774143B1, “Method for treating cells resistant to antineoplastic agents” (Novartis AG, priority 2003, dated 2004).

Like-named read-outs stand apart in the source and are kept apart here.

In series [1] the test system is MCF-7/ADR cells (multidrug resistant). Description: Antiproliferative assay, methylene blue staining. The series is classed as cell-based, human. The source says:
The following cell lines are obtained from the American Type Culture Collection (ATCC, Rockville, Md., USA): human colon carcinomas HCT-15 (CCL 225) and HCT-116 (CCL 247), human lung adenocarcinoma A549 (CCL 185), human large cell carcinoma NCI-H460 (HTB 177), estrogen-independent breast carcinoma MDA-MB-231 ([…]), prostate cancer cell line Du 145 (HTB 81). The human KB-31 (drug-sensitive) and KB-8511 (multidrug-resistant, Pgp170 overexpressing) epidermoid carcinoma cells are obtained from Dr. R. M. Baker, Roswell Park Memorial Institute (Buffalo, N.Y., USA) and have been previously described (Akiyam S, et al. Somatic Cell Molec Genetics 1985;11:117-126 and Fojo A, et al., Cancer Res. 1997;45:3002-3007). The human metastatic prostate carcinoma PC-3M is obtained from Dr. I. J. Fidler (MD Anderson Cancer Center, Houston, Tex., USA). […]
For the antiproliferative assays, cells are seeded at 1.5×10^3/well into 96-well microtiter plates and incubated overnight. […] After washing, the dye is eluted with 3% v/v HCl and the optical density measured at 665 nm with a SpectraMax 340 (Bucherer, Basel, Switzerland). IC50 values are determined by a computerized system (SoftPro, Bucherer, Basel, Switzerland) using the formula (OD test—OD start)/(OD control—OD start)×100. […]

Series [2] is described as follows: Toxicity in non-tumor bearing naive nude mice (body weight). The series is classed as in vivo. Conditions: for body weight change: naive mice. The procedure: To assess toxicity of discodernolide on non-tumor bearing animals, four groups of 8 naive nude mice are dosed with the compound, iv, once (5 mg/kg, 7.5 mg/kg, 10 mg/kg, or 15 mg/kg). The control group is dosed with the vehicle alone (16.7% Cremophor EL, 8.3% ethanol and 75% D5W). Body weights are recorded once weekly.

For the next series, the system named is A549 cells. Description: Antiproliferative assay (MTS). The series is classed as cell-based, human. Conditions: 72 h exposure, two independent experiments, read-out: IC50 cell proliferation. The procedure:
A549, a human non-small cell lung carcinoma and MDA-MB-435, a human breast carcinoma, used in this study are obtained from the American Type Culture Collection (ATCC, Rockville, Md., USA). MDA-MB-435 cells are maintained in MEM containing 10% FBS, 1% sodium pyruvate, 1% MEM non-essential amino acids, and 15 mM HEPES (pH=7.4). A549 cells are maintained in RPMI 1640 containing 10% FBS. 1A9, a single-cell clone of the human ovarian carcinoma cell line A2780 and PTX22, the paclitaxel-resistant subline, used in this stdy are obtained from M. Wartman (Novartis Pharmauticals). 1A9 cells and PTX22 cells are maintained in RPMI 1640 supplemented with 10% FBS. PTX22 maintenance media also contained 15 ng/mL paclitaxel and 5 μg/mL verapamil. Drug is removed from the media for 5-7 days before use in an experiment. All maintenance media contained 100 units/mL penicillin and 100 μg/mL streptomycin.
Cell lines are trypsinized and counted using a Coulter counter. Cells were plated in 96 well plates (190 μL/well) at the following densities: 1,000 cells/well for A549 and 3,000 cells/well for MDA-MB-435. The number of cells plated results in cell densities of 75-90% confluence by the time of harvest. Plates are seeded on day 0. On day 1 test compounds are added to triplicate wells in a final volume of 10 μL media. Initial cell density for each cell line is measured on day 1 by adding 10 μL MTS mixture (see below), incubating for 4 h and recording absorbance at 490 nm (A490). Two or three days after test compound addition, 10 μL/well of MTS mixture is added to the test plates and A490 was read 4 h later. A490 values for wells containing cells are corrected for media absorbance, then normalized to initial density readings to determine percent net growth. Percent net growth is calculated as (A490+drug−A490 initial)/(A490—drug—A490 initial). Graphs of percent net growth as a function of compound concentration are used to calculate concentrations resulting in 50% growth inhibition (IC50). MTS mixture is prepared fresh on day of addition to cell plates at a ratio of 10 μL of a 0.92 mg/mL solution of phenazine methosulfate (PMS) to 190 μL of a 2 mg/mL solution of MTS (3-(4,5-dimethylthiazol-2-yl)-5-(3-carboxymethoxyphenyl)-2-(4-sulfophenyl)-2H-tetrazolium, inner salt). PMS and MTS solutions are prepared in buffered saline containing 0.2 g/L KCl, 8.0 g/L NaCl, 0.2 g/L KH2PO4, 1.15 g/L Na2HPO4, 133 mg/L CaCl2.2H2O, 100 mg/L MgCl2.6H2O, (pH=7.35) and stored as foil-wrapped aliquots at −20° C. Test compounds are prepared as stock solutions in DMSO. Test compound dilutions are made in 2% DMSO/cell maintenance media and diluted into assay plates to give 0.1% DMSO final in all wells.

In a further series the test system is 1A9PTX22 cell line. The following applies: cited from earlier work.

With `C=C/C=C\[C@H](C)[C@H](OC(N)=O)[C@@H](C)[C@H](O)[C@@H](C)C/C(C)=C\[C@H](C)[C@@H](O)[C@@H](C)/C=C\[C@@H](O)C[C@@H]1OC(=O)[C@H](C)[C@@H](O)[C@H]1C` [discodermolide, (+)-Discodermolide], the “potency compared with paclitaxel” value in series [1] is “more potent than paclitaxel”. Also, the body weight lost result in series [2] (naive athymic nude mice, single injections, one week after dosing) is on record as “no more than 4%”. In addition, the body weight change entry in series [2] (single iv 5 mg/kg, one week after dosing) is given as “+8.7%”; in series [2] (single iv 5 mg/kg, three weeks after dosing) it was “+9.4%”; in series [2] (single iv 5 mg/kg, two weeks after dosing), “+9.4%”; in series [2] (single iv 7.5 mg/kg, one week after dosing), “+1.2%”; in series [2] (single iv 7.5 mg/kg, three weeks after dosing), “+7.7%”; in series [2] (single iv 7.5 mg/kg, two weeks after dosing) it was “+3.2%”. For the same compound, the body weight change is given as −1.2% in series [2] (single iv 10 mg/kg, one week after dosing); “+5.6%” in series [2] (single iv 10 mg/kg, three weeks after dosing); “+1.2%” in series [2] (single iv 10 mg/kg, two weeks after dosing); −4.1% in series [2] (single iv 15 mg/kg, one week after dosing); “+5.90%” in series [2] (single iv 15 mg/kg, three weeks after dosing); −0.4% in series [2] (single iv 15 mg/kg, two weeks after dosing). The IC50 with A549 cells worked out at 60 nM; in the series on A549 cells (Homo sapiens, A549, 72 h) it was 45 nM.

Consider `CC(=O)O[C@H]1C(=O)[C@@]2(C)[C@H]([C@H](OC(=O)c3ccccc3)[C@]3(O)C[C@H](OC(=O)[C@H](O)[C@@H](NC(=O)c4ccccc4)c4ccccc4)C(C)=C1C3(C)C)[C@]1(OC(C)=O)CO[C@@H]1C[C@@H]2O` [paclitaxel, reference compound], for which, in the series with 1A9PTX22 cell line (PTX-22 subline), the “fold less sensitive than 1A9 (reported)” value was 20-30 fold. Also, in the series on 1A9PTX22 cell line (in vitro, Giannakakou et al. 1997), the “fold resistance of 1A9PTX22 versus parental 1A9” value is 24 fold.
